Columns and labels:
[1] = system: mice subjected to middle cerebral artery occlusion; assay: Middle cerebral artery (MCA) occlusion stroke model, infarct volume with SHA; assay type: in vivo, C57BL/6 mice; conditions: 400 mg/kg i.p. twice (at occlusion and 1.5 h later), sacrifice at 24 hours, mean±SEM, n=3
Procedure: FIG. 5 is a graph depicting the infarct volume of C57BL/6 mice subjected to middle cerebral artery occlusion and treated with saline (Control, n=3) or SHA (SHA, n=3).
SHA was tested for its ability to prevent cytotoxic damage by using the middle cerebral artery (MCA) occlusion stroke model (Longa et al., supra). Briefly, this system involves anesthetizing mice with isoflurane and then maintaining the body temperature of the mice at 36±1° C. A 6.0 monofilament nylon suture with silicone-coated tip was then advanced into the internal carotid artery about 9 mm via the external carotid artery. Immediately after the filament was secured, SHA (400 mg/kg i.p.) or vehicle (normal saline) was injected. At 1.5 hours after the first injection, a second i.p. injection was given to the animal. 2 hours later the animals were re-anesthetized and the filament was removed to allow reperfusion. Cerebral blood flow, blood pressure, blood gases, pH, and serum glucose were monitored in these studies. At 24 hours the animals were sacrificed, brains removed and 1 mm thick brain section are cut on a vibratome. The brain slices were stained with 2% triphenyltetrazolium choloride. The infarct volume was obtained as described in Swanson et al., supra with results being (mean+SEM, n=3 in each group) 62.6±34.2 mm^3 in the vehicle-treated group versus 6.1±6.0 mm^3 in the SHA-treated group.

complement C3 = complement C3 (Homo sapiens, UniProt P01024); assay: complement C3 inhibitory IC50 of SHA; assay type: biochemical
[2] = Pharmacokinetics of SHA in blood and brain after i.p. injection; assay type: in vivo, Sprague-Dawley rats; conditions: 400 mg/kg i.p., rat
Procedure: SHA (400 mg/kg) was injected intraperitoneally (i.p.) into Sprague-Dawley rats. At fixed time intervals after injection, blood samples were collected, and perfused brain was removed and homogenized. Acidified blood and brain samples were extracted in ethyl acetate. SHA was quantitated by reverse phase HPLC at 310 nm, and compared to known amounts of standards that had been added to blood or brain tissue as shown in FIG. 4.
The time of SHA injection after the onset of ischemia or reperfusion can be systematically varied to determine other ranges in which therapeutic intervention is available using this drug.

[3] = system: mice subjected to middle cerebral artery occlusion; assay: Intravenous injection of tPA into tPA-deficient or wild-type mice with intraluminal filament MCA occlusion; assay type: in vivo, mice (C57BL/6 or SV129)
Procedure: Wild-type and tPA-deficient male mice (on C57Black/6 and SV129 backgrounds) weighing 23-27 grams were housed in a 12 hour light/dark cycle and permitted food and water intake ad libitum. Transient ischemia/reperfusion was performed using the intravascular filament model to occlude the middle cerebral artery unilaterally for 2 or 3 hours followed by reperfusion for the remainder of the 24 hour period as described in Longa et al., Stroke 20, 84-91 (1989) and Soriano. et al. Ann. Neurol. 39, 618-624 (1996). Briefly, under isoflurane anesthesia, a 6.0 nylon filament coated with silicone was threaded into the lumen of the middle cerebral artery of mice (C57Black/6 and SVI29 backgrounds) to produce transient ischemia. After 2 or 3 hours of occlusion, the filament was gently withdrawn to allow tissue reperfusion. Body temperature was maintained at 36.5±1.0° C. […] Animals were sacrificed 24 hours after the onset of the insult as described in Huang et al. Science 265, 1883-1885 (1994) and Soriano, supra. Infarct volumes were digitally quantified on 1.5 mm thick coronal sections after correction for edema by measuring TTC staining, as described in Soriano, supra, Bederson et al., Stroke 17,472-476 (1986); Swanson et al., J. Cereb. Blood Flow Metab. 10, 290-293 (1990), Lin et al., Stroke 24, 117-121 (1993); Zhang, et al., Neurology 44, 1747-1751 (1994); and Chopp et al. Stroke 25, 869-876 (1994)). Infarct volume decreased from 116±8 mm^3 in control wild-type mice to 69±7 mm^3 in tPA-deficient mice (mean±s.e.m., n=19 mice), as shown in FIG. 1. Under these conditions, there is no thrombosis at the occluded site, so the absence of tPA would not contribute to damage via an enhanced clotting cascade.
To determine the effect of intravenous injection of tPA into tPA-deficient or wild-type mice (C57BL/6 or SV129), intravenous tPA was administered intravenously, 10% initially by bolus, followed by constant infusion over twenty to thirty minutes at 0.9-1.0 mg/kg (similar to rt-PA Stroke Study Group, N. EngL J. Med. 333, 1581-1587 (1995) and Hacke. et al. JAMA 274, 1017-1025 (1995). The formula for the carrier used to dilute tPA was obtained from the manufacturer (Genentech, San Francisco, Calif.) and was used as one of the control injections. The diluent consisted of 0.02 M arginine phosphate at pH 7.3 with 0.001% Tween. […] In wildtype, but not tPA deficient mice, ischemia induced an increase in tPA activity, as assessed by histological zymography. Briefly, wild-type or tPA deficient mice were subjected to 2 hours of focal ischemia. After 10 minutes of reperfusion, the animals were sacrificed and their brains frozen as described previously (Tsirka et al., Nature 377, 340-344 (1995)). Then, 12 μm consecutive coronal brain cryostat sections were subjected to histological zymography to visualize tPA activity with or without amiloride (1 mM, a specific urokinase [uPA] inhibitor) (Sappino et al J. Clin. Invest. 92, 679-685 (1993) and Rosenberg et al., Cereb. Blood Flow Metab. 16, 360-366 (1996)). The sections were overlaid with a milk-agarose substrate matrix containing 50 ug/ml of purified human plasminogen and 1 mg/ml amiloride. […]
Regional cerebral blood flow was also monitored by the laser Doppler flowmetry technique as described in Dimagl et al J. Cereb. […] Briefly, the initial reading of regional Cerebral Blood Flow (rCBF) was assigned a value of 100% and subsequent readings were expressed relative to this value. […]

complement C3, sequence (P01024 23-1663, species assumed): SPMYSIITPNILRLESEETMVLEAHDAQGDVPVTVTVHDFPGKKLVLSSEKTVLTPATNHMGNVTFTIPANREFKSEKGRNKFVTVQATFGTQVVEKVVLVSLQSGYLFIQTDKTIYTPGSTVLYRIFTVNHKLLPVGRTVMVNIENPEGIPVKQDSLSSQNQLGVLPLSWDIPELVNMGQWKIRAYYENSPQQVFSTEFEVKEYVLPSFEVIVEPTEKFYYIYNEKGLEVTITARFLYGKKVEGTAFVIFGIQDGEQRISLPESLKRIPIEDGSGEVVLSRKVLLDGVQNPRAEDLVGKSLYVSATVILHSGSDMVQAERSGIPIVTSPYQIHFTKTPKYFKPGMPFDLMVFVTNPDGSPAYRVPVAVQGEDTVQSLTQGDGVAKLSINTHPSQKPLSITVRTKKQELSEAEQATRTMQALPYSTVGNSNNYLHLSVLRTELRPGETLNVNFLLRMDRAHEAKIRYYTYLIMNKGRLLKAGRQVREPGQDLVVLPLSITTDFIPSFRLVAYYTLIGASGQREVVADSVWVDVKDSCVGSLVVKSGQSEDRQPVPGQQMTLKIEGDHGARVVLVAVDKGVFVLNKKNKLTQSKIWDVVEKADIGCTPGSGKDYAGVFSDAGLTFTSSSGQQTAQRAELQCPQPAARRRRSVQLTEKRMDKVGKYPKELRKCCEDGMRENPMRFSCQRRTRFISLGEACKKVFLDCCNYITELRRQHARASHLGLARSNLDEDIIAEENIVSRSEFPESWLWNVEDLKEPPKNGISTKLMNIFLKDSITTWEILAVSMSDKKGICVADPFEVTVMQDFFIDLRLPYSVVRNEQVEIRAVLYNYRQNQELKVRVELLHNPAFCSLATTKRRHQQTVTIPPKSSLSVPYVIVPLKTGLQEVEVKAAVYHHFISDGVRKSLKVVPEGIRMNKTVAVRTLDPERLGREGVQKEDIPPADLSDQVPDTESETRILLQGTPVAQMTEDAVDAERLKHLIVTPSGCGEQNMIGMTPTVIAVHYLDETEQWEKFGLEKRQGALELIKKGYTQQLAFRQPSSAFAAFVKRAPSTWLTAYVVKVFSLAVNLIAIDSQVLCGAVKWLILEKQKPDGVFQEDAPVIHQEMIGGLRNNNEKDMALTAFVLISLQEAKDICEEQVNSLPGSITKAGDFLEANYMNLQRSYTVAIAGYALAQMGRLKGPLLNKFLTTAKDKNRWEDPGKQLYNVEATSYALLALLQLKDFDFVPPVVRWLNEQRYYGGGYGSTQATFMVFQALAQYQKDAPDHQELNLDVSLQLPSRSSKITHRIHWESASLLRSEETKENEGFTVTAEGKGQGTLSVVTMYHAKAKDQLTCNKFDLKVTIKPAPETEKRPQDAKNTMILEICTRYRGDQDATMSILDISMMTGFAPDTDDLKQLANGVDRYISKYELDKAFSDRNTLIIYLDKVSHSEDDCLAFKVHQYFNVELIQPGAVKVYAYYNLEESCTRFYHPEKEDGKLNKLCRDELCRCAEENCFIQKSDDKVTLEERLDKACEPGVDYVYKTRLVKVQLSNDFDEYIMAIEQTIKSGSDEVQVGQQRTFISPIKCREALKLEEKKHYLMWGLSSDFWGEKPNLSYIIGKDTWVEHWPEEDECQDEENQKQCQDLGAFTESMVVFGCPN

Row | Compound | infarct volume [1] | IC50 (complement C3) | complement C3 inhibitory IC50, equivalent brain concentration (complement C3; equivalent of the IC50 expressed per g brain) | ability to cross the blood-brain barrier ([2]; normal brain) | time after injection during which SHA concentration in blood and brain exceeds the complement C3 IC50 ([2]; blood and brain) | time of peak concentration in blood and brain after drug administration ([2]; blood and brain) | hemorrhage or other bleeding diathesis at postmortem examination ([3]; tPA 0.9-1.0 mg/kg i.v., all animals) | entry of tPA activity into the brain (histological zymography) ([3]; tPA-deficient mice, intravenous exogenous tPA) | increase in size of cerebral infarction ([3]; tPA-deficient mice, tPA 0.9-1.0 mg/kg i.v.) | effect on size of the stroke with large cerebral infarcts ([3]; wild-type mice, 3 hours of vascular occlusion, versus control animals not receiving tPA) | increase in size of cerebral infarction ([3]; wild-type mice, tPA 0.9-1.0 mg/kg i.v., 2 hour occlusion)
1 | O=C(NO)c1ccccc1O [SHA, salicylhydroxamic acid] | 6.1±6.0 mm^3 | 8.3 µM | 0.0013 mg SHA/g brain | able to cross the blood-brain barrier quite effectively | 2 h | about 30 minutes |  |  |  |  | 
2 | tPA: serine protease tissue plasminogen activator, thrombolytic agent, commercially available from Genentech |  |  |  |  |  |  | No hemorrhage or other bleeding diathesis occurred | apparent entry of tPA activity into the brain | near doubling of the damage | did not enhance the size of the stroke | 20-35%
